pIC50: −log10 of the molar value. ≈ marks a conversion by molar mass, not a printed value. Like-named read-outs stand apart in the source and are kept apart here.
Key:
[1] = tested on: Trypanosoma brucei trypomastigotes; test: Antitrypanosomal Alamar Blue assay; assay type: cell-based; details: for pIC50 / IC90: Table 4; for pIC50: read-out: T. brucei IC50; for IC90: read-out: T. brucei IC90
Source text: (§1) The in vitro antileishmanial and antitrypanosomal assays were done on cell cultures of L. donovani promastigotes, axenic amastigotes, THP1-amastigotes, and Trypanosoma brucei trypomastigotes by Alamar Blue assays. The conditions for seeding the THP1 cells, exposure to the test samples, and evaluation of cytotoxicity were the same as described in parasite-rescue and transformation assay. IC50 and IC90 values were computed from the dose response curves using XLfit software (XLfit 5.3.1, IDBS analytical, Boston MA, USA). DFMO (difluoromethylornithine) was used as the positive control. The antiprotozoal activity of C. villosus extracts and isolated compounds were evaluated in vitro against L. donovani promastigotes, axenic amastigotes, and intracellular amastigotes in THP1 cells. The extracts and some isolated compounds were also evaluated against T. brucei trypomastigote forms. All the extracts and compounds were simultaneously tested against THP1 cell for determination of general cytotoxicity. The extracts and isolated compounds were also evaluated for their antimalarial activity against chloroquine-sensitive (D6, Sierra Leone) and chloroquine-resistant strains (W2, Indochina) strains of Plasmodium falciparum. Furthermore, they were tested for cytotoxicity against the Vero cell line.

[2] = tested on: L. donovani promastigotes; test: Antileishmanial Alamar Blue assay, promastigotes; assay type: cell-based; details: Leishmania donovani; for pIC50: read-out: L. donovani Promastigote IC50; for IC90: read-out: L. donovani Promastigote IC90
Source text: as §1

[3] = tested on: L. donovani axenic amastigotes; test: Antileishmanial Alamar Blue assay, axenic amastigotes; assay type: cell-based; details: Leishmania donovani; for pIC50: read-out: L. donovani Amastigote IC50; for IC90: read-out: L. donovani Amastigote IC90
Source text: as §1

[4] = tested on: L. donovani intracellular amastigotes in THP1 cells; test: Antileishmanial assay, intracellular amastigotes in THP1 cells; assay type: cell-based; details: Leishmania donovani; for pIC50: THP-1, read-out: L. donovani Amastigote/THP1 IC50; for IC90: THP-1, read-out: L. donovani Amastigote/THP1 IC90
Source text: as §1

[5] = THP1 cytotoxicity; assay type: cell-based; details: human
Source text: as §1

[6] = tested on: THP1 cells; test: THP1 cytotoxicity; assay type: cell-based
Source text: as §1

[7] = tested on: HepG2 cells; test: Cellular antioxidant activity (CAA) assay; assay type: cell-based
Procedure: The cellular antioxidant activity was measured in HepG2 cells as described by Wolfe and Rui. The antioxidant activity was expressed in terms of CAA units. The area under the curve (AUC) of fluorescence versus time plot was used to calculate CAA units as described by Wolfe and Rui.

[8] = tested on: Candida albicans; test: Antifungal assay C. albicans; assay type: cell-based; details: for IC50: pure compounds; for inhibition at 50 µg/mL: Concentration: 50 μg/mL, <50 considered inactive, read-out: % Growth Inhibition C. albicans
Procedure: (§2) Extracts and pure compounds were tested for their antimicrobial activity against Staphylococcus aureus, methicillin-resistant S. aureus (MRSA), Escherichia coli, Pseudomonas aeruginosa, and Mycobacterium intracellulare. The antifungal activities were evaluated against a panel of pathogenic fungi, including Candida albicans, C. glabrata, C. krusei, Aspergillus fumigatus, and Cryptococcus neoformans, associated with opportunistic infections.

[9] = tested on: Aspergillus fumigatus; test: Antifungal assay A. fumigatus; assay type: cell-based
Procedure: as §2

[10] = tested on: Cryptococcus neoformans; test: Antifungal assay C. neoformans; assay type: cell-based; details: for IC50: pure compounds; for inhibition at 50 µg/mL: Concentration: 50 μg/mL, <50 considered inactive, read-out: % Growth Inhibition C. neoformans
Procedure: as §2

[11] = tested on: Staphylococcus aureus; test: Antibacterial assay S. aureus; assay type: cell-based; details: pure compounds
Procedure: as §2

[12] = tested on: methicillin-resistant S. aureus (MRSA); test: Antibacterial assay MRSA; assay type: cell-based; details: Staphylococcus aureus; for inhibition at 50 µg/mL: Concentration: 50 μg/mL, <50 considered inactive, read-out: % Growth Inhibition MRSA
Procedure: as §2

[13] = tested on: Escherichia coli; test: Antibacterial assay E. coli; assay type: cell-based; details: for IC50: pure compounds; for inhibition at 50 µg/mL: Concentration: 50 μg/mL, <50 considered inactive, read-out: % Growth Inhibition E. coli
Procedure: as §2

[14] = tested on: Pseudomonas aeruginosa; test: Antibacterial assay P. aeruginosa; assay type: cell-based; details: for IC50: pure compounds; for inhibition at 50 µg/mL: Concentration: 50 μg/mL, <50 considered inactive, read-out: % Growth Inhibition P. aeruginosa
Procedure: as §2

[15] = tested on: iNOS; test: Inhibition of iNOS (intracellular NO production) in RAW 264.7 macrophages; assay type: cell-based; details: Mus musculus, RAW264.7; RAW 264.7 cells; NA = no activity at 25 µg/mL (pure compounds) or 100 µg/mL (extracts)
Procedure: The extracts and isolated compounds of C. villosus were evaluated in terms of their interaction with cellular targets related to inflammation and metabolic disorders, such as iNOS and NF-κB. The inhibition of intracellular NO production as a result of iNOS activity was assayed in mouse macrophages (RAW 264.7cells). Cytotoxicity of test samples to macrophages was also determined in parallel to check if the inhibition of iNOS was due to cytotoxic effects.

[16] = tested on: NF-κB; test: Reporter gene assay for the inhibition of NF-κB; assay type: cell-based; details: PMA-treated cells, luciferase reporter; NA = no activity at 25 µg/mL (pure compounds) or 100 µg/mL (extracts); read-out: Inhibition of NF-kB IC50
Procedure: Reporter gene assay for the inhibition of NF-κB Activity was performed as described earlier. In brief, cells transfected with NF-κB luciferase plasmid construct were plated in 96-well plates at a density of 1.25 × 10^5 cells/well. After 24 h, cells were treated with the test compounds and, after incubating for 30 min, phorbol 12-myristate 13-acetate (PMA) (Sigma-Aldrich, Burlington MA, USA) (70 ng/mL) was added and further incubated for 6−8 h. Luciferase activity was measured as described above. Percent decrease in luciferase activity was calculated relative to the vehicle control. Parthenolide (Sigma-Aldrich, Burlington MA, USA) was used as a positive control.

[17] = tested on: P. falciparum (D6 Clone); test: Antimalarial assay, chloroquine-sensitive D6 clone; assay type: cell-based, Plasmodium falciparum; details: for SI (first SI column of Table 7, presumably D6): selectivity index = IC50 for cytotoxicity/IC50 for antimalarial activity
Source text: as §1

[18] = tested on: P. falciparum (W2 Clone); test: Antimalarial assay, chloroquine-resistant W2 clone; assay type: cell-based, Plasmodium falciparum; details: for SI (second SI column of Table 7, presumably W2): selectivity index = IC50 for cytotoxicity/IC50 for antimalarial activity
Source text: as §1

[19] = Cytotoxicity against Vero cell line (antimalarial counterscreen); assay type: cell-based; details: African green monkey, column head does not name the cells, read-out: IC50 (third IC50 column of Table 7, presumably Vero cytotoxicity)
Source text: as §1

[20] = THP1 cells, read-out: THP1 Cytotoxicity IC50

Compound: NCCCC(N)(C(=O)O)C(F)F (stereo not shown) [DFMO, difluoromethylornithine, reference compound]
- pIC50 [1]: 5.44
- IC90 [1]: 8.8 µM

Compound: N=C(N)c1ccc(OCCCCCOc2ccc(C(=N)N)cc2)cc1 [Pentamidine, reference compound]
- pIC50 [2]: 5.83
- IC90 [2]: 2380 nM
- pIC50 [3]: 5.02
- IC90 [3]: > 10 µM
- pIC50 [4]: 5.94
- IC90 [4]: 5.59 µM
- pIC50 ([1]; Trypanosoma brucei): 9.00
- IC90 ([1]; Trypanosoma brucei): 0.002 µM
- pIC50 [5]: < 5.00
- THP1 Cytotoxicity C90 ([6]; human): >10 µM

Compound: C[C@@H]1O[C@@H](O[C@@H]2[C@@H](O)[C@H](O)[C@@H](CO)O[C@H]2c2c(O)cc(O)c3c(=O)cc(-c4ccc(O)c(O)c4)oc23)[C@H](O)[C@H](O)[C@H]1O [Compound 4, 2″-O-α-L-rhamnosylorientin]
- % Decrease in Oxidative Stress ([7]; concentration 250 µg/mL): 28%
- % Decrease in Oxidative Stress ([7]; concentration 500 µg/mL): 29%
- % Decrease in Oxidative Stress ([7]; concentration 1000 µg/mL): 36%
- pIC50 [2]: < 5.00
- IC90 [2]: > 10000 nM
- pIC50 [3]: < 5.00
- IC90 [3]: > 10 µM
- pIC50 [4]: < 5.00
- IC90 [4]: > 10 µM
- pIC50 ([1]; Trypanosoma brucei): < 5.00
- IC90 ([1]; Trypanosoma brucei): > 10 µM
- T. brucei IC50 ([1]; as given in the text): didn’t show an effect
- pIC50 [5, 20]: < 5.00
- THP1 Cytotoxicity C90 [6]: >10 µM
- IC50 [8]: > 20 µg/mL
- IC50 ([9]; pure compounds): > 20 µg/mL
- IC50 [10]: > 20 µg/mL
- IC50 [11]: > 20 µg/mL
- IC50 ([12]; pure compounds): > 20 µg/mL
- IC50 [13]: > 20 µg/mL
- IC50 [14]: > 20 µg/mL

Compound: O=c1c(-c2ccc(O)cc2)coc2cc(O)cc(O)c12 [Compound 1, genistein]
- IC50 [15]: 9 µg/mL (≈ 33.3 µM)
- IC50 [16]: 28 µg/mL (≈ 104 µM)

Compound: C=C1C(=O)O[C@H]2[C@H]1CC/C(C)=C/CC[C@@]1(C)O[C@@H]21 [Parthenolide, reference compound]
- IC50 [15]: 0.2 µg/mL (≈ 0.805 µM)
- IC50 [16]: 1.63 µg/mL (≈ 6.56 µM)

Compound: O=C(O)c1cn(C2CC2)c2cc(N3CCNCC3)c(F)cc2c1=O [CIPRO, Ciprofloxacin, reference compound]
- inhibition at 50 µg/mL [8]: 0%
- inhibition at 50 µg/mL [10]: 0%
- inhibition at 50 µg/mL [12]: 0%
- inhibition at 50 µg/mL [13]: 100%
- inhibition at 50 µg/mL [14]: 96%

Compound: O=c1c(O)c(-c2ccc(O)c(O)c2)oc2cc(O)cc(O)c12 [Quercetin, reference compound]
- % Decrease in Oxidative Stress ([7]; 25 µM): 77%

Compound: CCN(CC)CCCC(C)Nc1ccnc2cc(Cl)ccc12 (stereo not shown) [CQ, Chloroquine, reference compound]
- inhibition at 0.0793 µg/mL ([17]; Plasmodium falciparum, D6, read-out: %Inhibition P. falciparum (D6 Clone)): 100%
- IC50 ([17]; Plasmodium falciparum, read-out: IC50): < 0.026 µg/mL
- SI (first SI column of Table 7, presumably D6) [17]: >9
- IC50 ([18]; Plasmodium falciparum, W2, read-out: IC50 (second IC50 column of Table 7, presumably P. falciparum W2)): 0.116 µg/mL (≈ 0.363 µM)
- SI (second SI column of Table 7, presumably W2) [18]: >2.1
- IC50 [19]: > 0.238 µg/mL

Compound: C[C@@H]1[C@H](O)[C@@H](C)/C=C/C=C/C=C/C=C/C=C/C=C/C=C/[C@H](O[C@@H]2O[C@H](C)[C@@H](O)[C@H](N)[C@@H]2O)C[C@@H]2O[C@](O)(C[C@@H](O)C[C@@H](O)[C@H](O)CC[C@@H](O)C[C@@H](O)CC(=O)O[C@H]1C)C[C@H](O)[C@H]2C(=O)O [Amphotericin B, reference compound]
- pIC50 [2]: 6.87
- IC90 [2]: 215 nM
- pIC50 [3]: 6.68
- IC90 [3]: 0.374 µM
- pIC50 [4]: 6.73
- IC90 [4]: 0.421 µM
- pIC50 [5]: < 5.70
- THP1 Cytotoxicity C90 ([6]; human): >2 µM
- inhibition at 50 µg/mL [8]: 100%
- inhibition at 50 µg/mL ([9]; Concentration: 50 μg/mL, <50 considered inactive, read-out: % Growth Inhibition A. fumigatus): 93%
- inhibition at 50 µg/mL [10]: 100%
- inhibition at 50 µg/mL [12]: 1%
- inhibition at 50 µg/mL [13]: 0%
- inhibition at 50 µg/mL [14]: 0%

Compound: O=c1cc(-c2ccccc2)oc2cc(O[C@@H]3O[C@H](CO)[C@@H](O)[C@H](O)[C@H]3O)cc(O)c12 [Compound 3, chrysin-7-O-β-D-glucopyranoside]
- IC50 [15]: 20 µg/mL (≈ 48 µM)
- pIC50 [2]: < 5.00
- IC90 [2]: > 10000 nM
- pIC50 [3]: < 5.00
- IC90 [3]: > 10 µM
- pIC50 [4]: < 5.00
- IC90 [4]: > 10 µM
- pIC50 ([1]; Trypanosoma brucei): < 5.00
- IC90 ([1]; Trypanosoma brucei): > 10 µM
- pIC50 [5, 20]: < 5.00
- THP1 Cytotoxicity C90 [6]: >10 µM
- IC50 [8]: > 20 µg/mL
- IC50 [10]: > 20 µg/mL
- IC50 [11]: > 20 µg/mL
- IC50 [13]: > 20 µg/mL
- IC50 [14]: > 20 µg/mL
- SI (first SI column of Table 7, presumably D6) [17]: 1
- SI (second SI column of Table 7, presumably W2) [18]: 1
- IC50 ([19]; Vero cells): > 4.76 µg/mL
